The text below walks through data of patent US6855513B1 (priority 1999, dated 2005).

The structures appear in SMILES notation.

The test system of data set [1] is qsc114. Description: Acyl-HSL induction of β-galactosidase in qsc114 mutant. The format is cell-based, Pseudomonas aeruginosa. The following applies: qsc114, Class II; 3OC12-HSL 2 μM, C4-HSL 5 μM.
Data set [2] deals with qsc119 (RhlB). Description: Acyl-HSL induction of β-galactosidase in qsc119 mutant. Particulars: qsc119, Class III; 3OC12-HSL 2 μM, C4-HSL 5 μM. It counts as cell-based, Pseudomonas aeruginosa.
Data set [3] relates to qsc103. Description: Acyl-HSL induction of β-galactosidase in qsc103 mutant. It counts as cell-based, Pseudomonas aeruginosa. Particulars: qsc103, Class I; 3OC12-HSL 2 μM, C4-HSL 5 μM.
Data set [4] relates to qsc105 (FAD-binding protein). Description: Acyl-HSL induction of β-galactosidase in qsc105 mutant. It counts as cell-based, Pseudomonas aeruginosa. The following applies: qsc105, Class I; 3OC12-HSL 2 μM, C4-HSL 5 μM.
For data set [5], the system named is qsc115. Kind of data set: Acyl-HSL induction of β-galactosidase in qsc115 mutant. The format is cell-based, Pseudomonas aeruginosa. Particulars: qsc115, Class II; 3OC12-HSL 2 μM, C4-HSL 5 μM.
The test system of data set [6] is qcs117 (ACP-like protein). Kind of data set: Acyl-HSL induction of β-galactosidase in qcs117 mutant. The format is cell-based, Pseudomonas aeruginosa. The following applies: qcs117, Class III; 3OC12-HSL 2 μM, C4-HSL 5 μM.
For data set [7], the system named is qsc125 (Zeaxanthin synthesis). Description: Acyl-HSL induction of β-galactosidase in qsc125 mutant. The format is cell-based, Pseudomonas aeruginosa. The following applies: qsc125, Class III; 3OC12-HSL 2 μM, C4-HSL 5 μM.
Data set [8] has as its system qsc104 (Polyamine binding protein). Kind of data set: Acyl-HSL induction of β-galactosidase in qsc104 mutant. It counts as cell-based, Pseudomonas aeruginosa. Particulars: qsc104, Class I; 3OC12-HSL 2 μM, C4-HSL 5 μM.
The test system of data set [9] is qsc138. Description: Acyl-HSL induction of β-galactosidase in qsc138 mutant. The format is cell-based, Pseudomonas aeruginosa. Particulars: qsc138, Class IV; 3OC12-HSL 2 μM, C4-HSL 5 μM.
Data set [10] has as its system qsc123 (9-Cis retinol dehydrogenase). Description: Acyl-HSL induction of β-galactosidase in qsc123 mutant. It counts as cell-based, Pseudomonas aeruginosa. Particulars: qsc123, Class III; 3OC12-HSL 2 μM, C4-HSL 5 μM.
Data set [11] concerns qsc100 (Peptide synthetase). Description: Acyl-HSL induction of β-galactosidase in qsc100 mutant. It counts as cell-based, Pseudomonas aeruginosa. Particulars: qsc100, Class I; 3OC12-HSL 2 μM, C4-HSL 5 μM.
In data set [12] the test system is qsc122A&B (Cytochrome p450). Particulars: Class III, 3OC12-HSL 2 μM, C4-HSL 5 μM.
In data set [13] the test system is qsc112A&B (Aculeacin A acylase). Kind of data set: Acyl-HSL induction of β-galactosidase in qsc112A&B mutants. The format is cell-based, Pseudomonas aeruginosa. The following applies: Class II, 3OC12-HSL 2 μM, C4-HSL 5 μM.
Data set [14] deals with qsc116. Description: Acyl-HSL induction of β-galactosidase in qsc116 mutant. It counts as cell-based, Pseudomonas aeruginosa. Particulars: qsc116, Class II; 3OC12-HSL 2 μM, C4-HSL 5 μM.
Data set [15] has as its system qtc136. Description: Acyl-HSL induction of β-galactosidase in qtc136 mutant. The following applies: qtc136, Class IV; 3OC12-HSL 2 μM, C4-HSL 5 μM. It counts as cell-based, Pseudomonas aeruginosa.
Data set [16] has as its system qsc101. Description: Acyl-HSL induction of β-galactosidase in qsc101 mutant. The following applies: qsc101, Class I; 3OC12-HSL 2 μM, C4-HSL 5 μM. It counts as cell-based, Pseudomonas aeruginosa.
Data set [17] relates to qsc131 (PhzC). Description: Acyl-HSL induction of β-galactosidase in qsc131 mutant. The format is cell-based, Pseudomonas aeruginosa. Particulars: qsc131, Class III; 3OC12-HSL 2 μM, C4-HSL 5 μM.
Data set [18] concerns qsc137 (Asparagine synthetase). Kind of data set: Acyl-HSL induction of β-galactosidase in qsc137 mutant. Particulars: qsc137, Class IV; 3OC12-HSL 2 μM, C4-HSL 5 μM. The format is cell-based, Pseudomonas aeruginosa.
The test system of data set [19] is qsc109 (Bacitracin synthetase 3). Description: Acyl-HSL induction of β-galactosidase in qsc109 mutant. It counts as cell-based, Pseudomonas aeruginosa. The following applies: qsc109, Class II; 3OC12-HSL 2 μM, C4-HSL 5 μM.
The subject of data set [20] is qsc108 (ORF 5). Kind of data set: Acyl-HSL induction of β-galactosidase in qsc108 mutant. The format is cell-based, Pseudomonas aeruginosa. The following applies: qsc108, Class II; 3OC12-HSL 2 μM, C4-HSL 5 μM.
The test system of data set [21] is qsc102. Description: Acyl-HSL induction of β-galactosidase in qsc102 mutant. It counts as cell-based, Pseudomonas aeruginosa. The following applies: for Signal response (β-galactosidase activity with signal(s) divided by activity without added signals), maximum: qsc102, Class I, 3OC12-HSL 2 μM, C4-HSL 5 μM. The method, then:
E. coli and P. aeruginosa were routinely grown in Luria-Bertani (LB) broth or LB agar (Sambrook, et al. (1989) Molecular Cloning: a Laboratory Manual. (Cold Spring Harbor Laboratory, Cold Spring Harbor, N.Y.)), supplemented with antimicrobial agents when necessary. The antimicrobial agents were used at the following concentrations: HgCl2, 15 μg/ml in agar and 7.5 μg/ml in broth; nalidixic acid 20 μg/ml; carbenicillin, 300 μg/ml; tetracycline, 50 μg/ml for P. aeruginosa and 20 μg/ml for E. coli; and gentamicin, 100 μg/ml for P. aeruginosa and 15 μg/ml for E. coli. Synthetic acyl-HSL concentrations were 2 μM for 3OC12-HSL and 5 μM for C4-HSL, and 5-bromo4-chloro-3-indolyl-β-D-galactopyranoside (X-Gal) was used at 50 μg/ml.
Patterns of Acyl-HSL Induction of β-galactosidase Activity in qsc Mutants. The pattern of β-galactosidase expression was examined in response to acyl-HSLs in each of 47 qsc mutants identified in the initial screen. Each mutant was grown in 1 ml of MOPS (50 mM, pH 7.0) buffered LB broth containing one, the other, both, or neither acyl-HSL signal in an 18 mm culture tube at 37° C. with shaking. A mid-logarithmic phase culture was used as an inoculum and initial optical densities (ODs) at 600 nm were 0.1. Growth was monitored as OD at 600 nm and β-galactosidase activity was measured in 0.1 ml samples taken at 0, 2, 5, and 9 hours after inoculation.
One assay used the P. aeruginosa strain QSC102 (Table 3), which responds to the presence of exogenous 3-oxo-C12-HSL by inducing β-galactosidase activity up to 400-fold (Example 1). Cells were grown in the presence of a minimal concentration of 3-oxo-C12-HSL and in the presence and absence of the test compound. If the test compound interferes with signal reception, β-galactosidase activity is reduced. Interference can be a result of any of several mechanisms. The simplest is, if the test compound prevents the 3oxo-C12-HSL from binding to LasR. Alternatively, the test compound may prevent LasR from binding to DNA or interacting productively with RNA polymerase.

Data set [22] relates to qsc107. Kind of data set: Acyl-HSL induction of β-galactosidase in qsc107 mutant. Particulars: qsc107, Class I; 3OC12-HSL 2 μM, C4-HSL 5 μM. It counts as cell-based, Pseudomonas aeruginosa.

Regarding `CCCCCCCCCC(=O)CC(=O)N[C@H]1CCOC1=O` [3OC12-HSL, N-(3-oxododecanoyl) homoserine lactone], the “Signal response (β-galactosidase activity with signal(s) divided by activity without added signals), maximum” value in data set [1] was found to be 9; in [2], 9; in data set [3] it was 85; in data set [4], 40; in data set [5], 4; in data set [6] it was 22. The “Signal response (β-galactosidase activity with signal(s) divided by activity without added signals), maximum” value in data set [7] amounted to 20; in data set [8] it was 7; in data set [9], 3; in [10] it was 14; in [11] it was 65; in data set [12], 2. The “Signal response (β-galactosidase activity with signal(s) divided by activity without added signals), maximum” value is recorded as 15 in data set [13]; 5 in data set [14]; 7 in data set [15]; 145 in [16]; 50 in data set [17]; 1 in data set [18]. Moreover, the “Signal response (β-galactosidase activity with signal(s) divided by activity without added signals), maximum” value stood at 13 in data set [19], 13 in data set [20], 350 in data set [21] and 44 in data set [22]. In data set [21] (strain QSC102, exogenous signal), the “Induction of β-galactosidase activity” value was “up to 400 fold”.

Consider `CCCC(=O)N[C@H]1CCOC1=O` [C4-HSL, butanoyl-HSL], for which the “Signal response (β-galactosidase activity with signal(s) divided by activity without added signals), maximum” value in data set [1] turned out to be 1; in data set [2], 7; in data set [3], 1; in [4], 1; in data set [5], 1; in [6] it was 22. In addition, the “Signal response (β-galactosidase activity with signal(s) divided by activity without added signals), maximum” value was determined as 65 in [7]; 2 in data set [8]; 5 in data set [9]; 28 in data set [10]; 3 in data set [11]; 10 in data set [12]. The “Signal response (β-galactosidase activity with signal(s) divided by activity without added signals), maximum” value stood at 1 in data set [13]; 1 in data set [14]; 3 in data set [15]; 1 in data set [16]; 168 in data set [17]; 1 in data set [18]. In addition, the “Signal response (β-galactosidase activity with signal(s) divided by activity without added signals), maximum” value stood at 1 in [19], 1 in data set [20], 1 in data set [21] and 2 in data set [22].
